Key:
[1] = Inhibition of reverse transcriptase L100I mutant in HIV-1 3B infected in human MT4 cells assessed as reduction in virus-induced cytopathic effect incubated for 5 days by MTT assay
[2] = Inhibition of reverse transcriptase Y181C mutant in HIV-1 3B infected in human MT4 cells assessed as reduction in virus-induced cytopathic effect incubated for 5 days by MTT assay
[3] = Inhibition of reverse transcriptase E138K mutant in HIV-1 3B infected in human MT4 cells assessed as reduction in virus-induced cytopathic effect incubated for 5 days by MTT assay
[4] = Inhibition of reverse transcriptase K103N mutant in HIV-1 3B infected in human MT4 cells assessed as reduction in virus-induced cytopathic effect incubated for 5 days by MTT assay
[5] = Inhibition of reverse transcriptase Y188L mutant in HIV-1 3B infected in human MT4 cells assessed as reduction in virus-induced cytopathic effect incubated for 5 days by MTT assay

For `COc1cc(-c2ccc(C#N)cc2)ccc1C(O)c1ccnc(Nc2ccc(C#N)cc2)n1` (configuration not stated), which EC50 [1] is on record?
Its EC50 is 113 nM.

What about the EC50 [2] of the same molecule?
The EC50 was 32 nM.

And the EC50 [3]?
Its EC50 is 7.4 nM.

Which EC50 [1] does the source give for `COc1cc(-c2ccc(C#N)cc2)ccc1[C@@H](O)c1ccnc(Nc2ccc(C#N)cc2)n1` here?
Its EC50 is 1250 nM.

What about the EC50 [4] of the same molecule?
The EC50 was 438 nM.

What about the EC50 [2] of the same molecule?
Its EC50 is 507 nM.

And the EC50 [3]?
Its EC50 is 196 nM.

What does the source list for `COc1cc(-c2ccc(C#N)cc2)ccc1[C@H](O)c1ccnc(Nc2ccc(C#N)cc2)n1`?
EC50 [1]: 67 nM; EC50 [4]: 6.7 nM; EC50 [2]: 15 nM; EC50 [5]: 88 nM

Which results are given for `N#Cc1ccc(Nc2nccc(C(O)c3ccc(-c4ccc(C#N)cc4)cc3Cl)n2)cc1` (configuration not stated)?
EC50 [1]: 91 nM; EC50 [4]: 5.9 nM; EC50 [2]: 14 nM; EC50 [5]: 297 nM; EC50 [3]: 7.3 nM

With `N#Cc1ccc(Nc2nccc([C@H](O)c3ccc(-c4ccc(C#N)cc4)cc3Cl)n2)cc1` as the molecule, how does the EC50 [1] read?
The EC50 was 1580 nM.

What about the EC50 [4] of the same molecule?
Its EC50 is 251 nM.

And the EC50 [2]?
Its EC50 is 799 nM.

And the EC50 [3]?
The EC50 was 206 nM.

Which results are given for `N#Cc1ccc(Nc2nccc([C@@H](O)c3ccc(-c4ccc(C#N)cc4)cc3Cl)n2)cc1`?
EC50 [1]: 53 nM; EC50 [4]: 3.2 nM; EC50 [2]: 14 nM; EC50 [5]: 128 nM; EC50 [3]: 3 nM

For `N#Cc1ccc(Nc2nccc(C(O)c3ccc(-c4ccc(C#N)cc4)cc3F)n2)cc1` (configuration not stated), which EC50 [1] is on record?
Its EC50 is 902 nM.

What about the EC50 [4] of the same molecule?
Its EC50 is 88 nM.

What about the EC50 [2] of the same molecule?
Its EC50 is 112 nM.

What about the EC50 [5] of the same molecule?
The EC50 was 4180 nM.

What about the EC50 [3] of the same molecule?
Its EC50 is 29 nM.

Which EC50 [1] does the source give for `N#Cc1ccc(Nc2nccc([C@H](O)c3ccc(-c4ccc(C#N)cc4)cc3F)n2)cc1` here?
The EC50 was 3630 nM.

And the EC50 [4]?
The EC50 was 736 nM.

And the EC50 [2]?
Its EC50 is 1160 nM.

What about the EC50 [5] of the same molecule?
Its EC50 is greater than 30000 nM.

What about the EC50 [3] of the same molecule?
Its EC50 is 164 nM.

With `N#Cc1ccc(Nc2nccc([C@@H](O)c3ccc(-c4ccc(C#N)cc4)cc3F)n2)cc1` as the molecule, how does the EC50 [1] read?
The EC50 was 380 nM.

What about the EC50 [4] of the same molecule?
The EC50 was 50 nM.

And the EC50 [2]?
The EC50 was 78 nM.

What about the EC50 [3] of the same molecule?
The EC50 was 9.3 nM.

Which EC50 [1] does the source give for `Cc1cc(-c2ccc(C#N)cc2)ccc1C(O)c1ccnc(Nc2ccc(C#N)cc2)n1` (configuration not stated) here?
The EC50 was 184 nM.

And the EC50 [4]?
Its EC50 is 18 nM.

What about the EC50 [2] of the same molecule?
Its EC50 is 31 nM.

What about the EC50 [5] of the same molecule?
The EC50 was 623 nM.

And the EC50 [3]?
The EC50 was 9.8 nM.

With `Cc1cc(-c2ccc(C#N)cc2)ccc1[C@@H](O)c1ccnc(Nc2ccc(C#N)cc2)n1` as the molecule, how does the EC50 [1] read?
Its EC50 is 2640 nM.

What about the EC50 [4] of the same molecule?
Its EC50 is 479 nM.

And the EC50 [2]?
Its EC50 is 743 nM.

What about the EC50 [3] of the same molecule?
Its EC50 is 149 nM.

With `Cc1cc(-c2ccc(C#N)cc2)ccc1[C@H](O)c1ccnc(Nc2ccc(C#N)cc2)n1` as the molecule, how does the EC50 [1] read?
Its EC50 is 81 nM.

And the EC50 [4]?
Its EC50 is 8.6 nM.

What about the EC50 [2] of the same molecule?
The EC50 was 19 nM.

And the EC50 [5]?
The EC50 was 264 nM.

And the EC50 [3]?
Its EC50 is 5.5 nM.

With `N#Cc1ccc(Nc2nccc(C(O)c3ccc(-c4ccc(C#N)cc4)cc3C(F)(F)F)n2)cc1` (configuration not stated) as the molecule, how does the EC50 [1] read?
The EC50 was 212 nM.

And the EC50 [4]?
Its EC50 is 26 nM.

What about the EC50 [2] of the same molecule?
The EC50 was 59 nM.

What about the EC50 [5] of the same molecule?
Its EC50 is 552 nM.

And the EC50 [3]?
Its EC50 is 26 nM.

For `N#Cc1ccc(Nc2nccc([C@H](O)c3ccc(-c4ccc(C#N)cc4)cc3C(F)(F)F)n2)cc1`, which EC50 [1] is on record?
Its EC50 is 1740 nM.

And the EC50 [4]?
Its EC50 is 1910 nM.

What about the EC50 [2] of the same molecule?
Its EC50 is 1820 nM.

What about the EC50 [5] of the same molecule?
Its EC50 is greater than 24100 nM.

And the EC50 [3]?
Its EC50 is 933 nM.

Which results are given for `N#Cc1ccc(Nc2nccc([C@@H](O)c3ccc(-c4ccc(C#N)cc4)cc3C(F)(F)F)n2)cc1`?
EC50 [1]: 93 nM; EC50 [4]: 15 nM; EC50 [2]: 30 nM; EC50 [5]: 318 nM; EC50 [3]: 9.1 nM

Which results are given for `N#Cc1ccc(Nc2nccc(C(O)c3c(F)cc(-c4ccc(C#N)cc4)cc3F)n2)cc1` (configuration not stated)?
EC50 [1]: 410 nM; EC50 [4]: 61 nM; EC50 [2]: 125 nM; EC50 [5]: 3500 nM; EC50 [3]: 25 nM

Which results are given for `N#Cc1ccc(Nc2nccc([C@H](O)c3c(F)cc(-c4ccc(C#N)cc4)cc3F)n2)cc1`?
EC50 [1]: 1430 nM; EC50 [4]: 364 nM; EC50 [2]: 432 nM; EC50 [5]: 5940 nM; EC50 [3]: 55 nM

With `N#Cc1ccc(Nc2nccc([C@@H](O)c3c(F)cc(-c4ccc(C#N)cc4)cc3F)n2)cc1` as the molecule, how does the EC50 [1] read?
The EC50 was 341 nM.

And the EC50 [4]?
The EC50 was 36 nM.

And the EC50 [2]?
The EC50 was 89 nM.

What about the EC50 [5] of the same molecule?
The EC50 was 2250 nM.

What about the EC50 [3] of the same molecule?
The EC50 was 8.4 nM.

With `Cc1cc(-c2ccc(C#N)cc2)cc(C)c1C(O)c1ccnc(Nc2ccc(C#N)cc2)n1` (configuration not stated) as the molecule, how does the EC50 [1] read?
The EC50 was 49 nM.

What about the EC50 [4] of the same molecule?
Its EC50 is 7 nM.

What about the EC50 [2] of the same molecule?
Its EC50 is 23 nM.

What about the EC50 [5] of the same molecule?
Its EC50 is 417 nM.

And the EC50 [3]?
The EC50 was 16 nM.

With `Cc1cc(-c2ccc(C#N)cc2)cc(C)c1[C@@H](O)c1ccnc(Nc2ccc(C#N)cc2)n1` as the molecule, how does the EC50 [1] read?
The EC50 was 165 nM.

What about the EC50 [4] of the same molecule?
Its EC50 is 21 nM.

And the EC50 [2]?
The EC50 was 46 nM.

What about the EC50 [5] of the same molecule?
Its EC50 is 2200 nM.

What about the EC50 [3] of the same molecule?
Its EC50 is 19 nM.

With `Cc1cc(-c2ccc(C#N)cc2)cc(C)c1[C@H](O)c1ccnc(Nc2ccc(C#N)cc2)n1` as the molecule, how does the EC50 [1] read?
The EC50 was 20 nM.

And the EC50 [4]?
Its EC50 is 3.9 nM.

And the EC50 [2]?
Its EC50 is 7.4 nM.

What about the EC50 [3] of the same molecule?
Its EC50 is 7.2 nM.

Reference: BindingDB's records for doi:10.1016/j.ejmech.2020.112549 (Sichuan University, 2020)
